Like-named read-outs stand apart in the source and are kept apart here.

What is called Hill coefficient is the slope factor of the fitted curve. The EC50 is the concentration giving half of the maximal effect. The stoichiometry N is the number of molecules, sites or subunits per partner or assembly.

The test system of one test is Alpo5-wt. Description: Two-electrode voltage clamp (TEVC) on Alpo5-wt expressed in Xenopus laevis oocytes. The settings on record: for Hill coefficient / EC50: concentration-activation curve, n = 4; for EC50: Hill fit, -80 mV. The class given is cell-based, Alvinella pompejana. The method, then: (§1) For the expression in Xenopus laevis oocytes, the genes coding for AlpoX-wt were subcloned into the vector pGEM-HE [38]. After NheI-treatment, the linearized plasmid DNA was transcribed to produce capped RNA by using the T7 mMESSAGE-mMACHINE transcription kit (Ambion). Four nanogram of the resulting RNA was injected into the cytosol of stage V and VI oocytes either manually or with an automated injection system (Roboinject, MultiChannelSystems). Oocyte preparations and injections were done using standard procedures.
(§2) One to five days after injection, electrophysiological recordings were performed by conventional or automated TEVC (HiClamp, MultiChannel Systems). […] Unless indicated otherwise, cells were held at a fixed potential of –80 mV throughout the experiment. To minimize heat shock, all preparation and recording procedures were carried out at 16°C [40]. Functional characterization consisted of the screening of potential ligands, the establishment of concentration-activation curves and the determination of ion selectivity. Different small molecules were tested for their effects on AlpoX-wt, such as dopamine, taurine, γ-aminobutyric acid (GABA), glycine and ivermectin (the complete list and the corresponding concentrations are mentioned in Table 1). To determine concentration-activation curves, cells were exposed to increasing concentrations of the test substance. To assess ion selectivity, current-voltage (I-V) relationships were determined in control OR2 solution as well as in medium in which chloride ions were substituted by gluconate. These I-V curves were generated by voltage ramps applied within 4 s and constructed around the reversal potential (Erev ± 80 mV). Leak properties of the cells measured in control conditions were subtracted from the I-V curves measured during exposure to 10 mM GABA.
(§3) Data were acquired either on a manual setup or on an automated recording system (HiClamp, MultiChannel Systems). […] Data acquired with the HiClamp were analyzed using the corresponding software.
On the technique in general: In two-electrode clamp one electrode senses voltage and the other passes current.

For another test, the system named is Alpo6-wt. Description: Two-electrode voltage clamp (TEVC) on Alpo6-wt expressed in Xenopus laevis oocytes. The class given is cell-based, Alvinella pompejana. The settings on record: for Hill-coefficients: activation-response curves; for EC50: concentration-activation curve. The method, then: as §1, §2, §3
Test [1] concerns the target Alpo4-wt (Alvinella pompejana). Description: negative stain EM; purified protein 0.03 mg/mL on carbon-coated copper grids, 1% uranyl formate, 120 kV; 2D class averages for Alpo4-wt.

Turning to `NCCCC(=O)O` [GABA, γ-aminobutyric acid], in the test with Alpo5-wt, the agonist type result is recorded as “full-agonists” and the Hill coefficient is given as 2.49 ± 0.09. In the test with Alpo6-wt, the agonist type result was “partial agonistic effect” and the Hill-coefficients is on record as 1.94 ± 0.15. Further, in the test with Alpo6-wt (on average), the “current evoked by a saturating concentration relative to current evoked by a saturating concentration of glycine” value was 86%.

For the molecule `NCC(=O)O` [glycine], in the test with Alpo5-wt, the agonist type result is “full-agonists”, the EC50 is 291 ± 16.4 µM and the Hill coefficient is 2.68 ± 0.08. Moreover, in the test with Alpo6-wt, the agonist type result is “full agonists” and the Hill-coefficients was 2.20 ± 0.16. Moreover, the EC50 in the test on Alpo6-wt (n = 3, read-out: EC50 values) worked out at 22100 ± 4530 µM.

For `NCCS(=O)(=O)O` [taurine], in the test with Alpo5-wt, the agonist type result is on record as “partial agonist”, the concentration giving a half-maximal response (EC50) was determined as 370 ± 30.2 µM and the Hill coefficient amounted to 2.51 ± 0.18. In the test on Alpo5-wt (on average), the “currents evoked at a saturating concentration relative to responses evoked by a saturating concentration of glycine” value worked out at 74%. Also, in the test on Alpo6-wt, the agonist type entry is listed as “full agonists” and the Hill-coefficients was found to be 1.87 ± 0.12. The EC50 with Alpo6-wt (n = 3, read-out: EC50 value) was found to be 227 ± 30.5 µM.

Alpo4-wt (receptor) gave a stoichiometry N in test [1] of 5.
